Experimental data as given in US8242152B2, “Use of 4-[(4-thiazolyl)phenoxy]alkoxy-benzamidine derivatives for the prophylaxis and treatment of osteoporosis” (Dong Wha Pharmaceutical Co., Ltd., priority 2001, dated 2012).

Tests used:
[1] = system: rabbit osteoclasts; test: TRAP(+) MNC formation in isolated rabbit osteoclast cultures, single treatment without LTB4 (Example 6); assay type: cell-based; details: for number of TRAP(+) MNCs / osteoclast formation: 1000 nM, single treatment without LTB4, dentine slices, 48 hrs (FIG. 3-8)
Description: (§1) Rabbit osteoclasts were isolated as described by Victoria Tai's report (Doctoral Dissertation, 1997, Graduate Department of Pharmacology, University of Toronto) and Rraser P. Coxon et al. (Methods in Molecular Medicine, vol 80). Neonatal rabbits (New Zealand White) were sacrificed by ether-inhaling method under a hood. The removed long bones were dissected free of attached soft tissues and placed into ice-cold PBS. The long bones were cut longitudinally and mechanically curetted in 10 ml medium 199 with antibiotics (10 ug/ml penicillin G and 50 ug/ml gentamycin) in a glass Petri dish. Each bone was curetted with a scalpel blade and was finely minced. The fragments were then vigorously agitated by pipetting up and down using a pasteur pipette and vortex-mixed for 30 seconds. The fragments were allowed to settle and the cell suspension was then transferred to a 50 ml tube and the previous step repeated three times to a total volume of 40 ml. The bone fragments were allowed to settle (>1 min). The cell suspension was then transferred to a new 50 ml tube, passed through a 40 um cell strainer and centrifuged at 200 g for 8 minutes. The supernatant was removed and the pellet was immediately resuspended in α-MEM with 2% FBS (bicarbonate buffered medium).
(§2) 40 uL droplets of osteoclast-containing suspensions were plated onto 60 mm tissue culture plastic dishes or on dentine slices in 96-well microtiter plates in 2% medium. The cells were allowed ninety minutes for attachment before the addition of 2 mL α-MEM with 2% FBS. After 24 hr culture, cells were washed to remove non-adherent cells and replaced with fresh medium as describes below.
After 24 hr in culture, the medium was replaced with fresh medium containing control, LTB4 receptor antagonists (1000 nM), DW1350 (10, 100 and 1000 nM) or LTB4 (100 nM) and the cultures were continued for an additional 48 hrs.
(§3) All cells were cultured at 37° C. in a humidified atmosphere of 95% air and 5% CO2 in bicarbonate buffered medium at pH 7.4.
(§4) Differentiated osteoclasts are multinucleated cells and have specific enzyme activity, such as ‘tartrate-resistant acid phosphatase (TRAP)’. Therefore, Osteoclast formation was determined by counting the number of TRAP-positive multinucleated cells (TRAP(+) MNCs).
(§5) After culture, the cells were fixed with 10% neutral buffered formalin for 30 min at 4° C., washed twice in distilled water and stained for TRAP activity by incubating with substrate. The number of TRAP(+)MNC with more than 2 nuclei was counted under photomicroscope.
(§6) Results were expressed as mean number of TRAP(+)MNC±SD of All experiments were done at least twice. Statistical analysis was performed for each experiment by student t-test.

[2] = system: LTB4-induced osteoclast formation; test: LTB4-induced osteoclast formation in rabbit osteoclast cultures, co-treatment and pre-treatment (Example 6); assay type: cell-based
Description: as §1, §2
After 24 hr in culture, the medium was removed and replaced with fresh medium containing both LTB4 receptor antagonist (1000 nM) and LTB4 (100 nM) or both DW1350 (1000 nM) and LTB4 (100 nM). The cultures were continued for an additional 48 hrs.
After 6 hrs in culture, the medium was removed and cells were pretreated with LTB4 receptor antagonists such as LY292728 (Journal of Medical Chemistry, 1995, vol. 38, No. 10, p 4411-4432), SB209247 (Journal of Medical Chemistry, 1996, vol. 39, No. 19, p 3837-3841), LY293111(Journal of Medical Chemistry, 1995, vol. 38, No. 10, p 4411-4432) and LY223982 (Journal of Medical Chemistry, 1993, vol. 36, p 3333-3340) or DW1350-containing medium and culture continued for 18 hrs. The medium was replaced with medium containing both LTB4 receptor antagonist and LTB4 or DW1350 and LTB4. The cultures were continued for an additional 48 hrs.
as §3, §4, §5, §6

[3] = biological target: LTB4 receptor (Homo sapiens, UniProt Q15722); details: cited from earlier work
[4] = 1000 nM in the presence of 100 nM LTB4 (FIGS. 6˜8), regimen not separated

Sequence of LTB4 receptor (Q15722 whole entry): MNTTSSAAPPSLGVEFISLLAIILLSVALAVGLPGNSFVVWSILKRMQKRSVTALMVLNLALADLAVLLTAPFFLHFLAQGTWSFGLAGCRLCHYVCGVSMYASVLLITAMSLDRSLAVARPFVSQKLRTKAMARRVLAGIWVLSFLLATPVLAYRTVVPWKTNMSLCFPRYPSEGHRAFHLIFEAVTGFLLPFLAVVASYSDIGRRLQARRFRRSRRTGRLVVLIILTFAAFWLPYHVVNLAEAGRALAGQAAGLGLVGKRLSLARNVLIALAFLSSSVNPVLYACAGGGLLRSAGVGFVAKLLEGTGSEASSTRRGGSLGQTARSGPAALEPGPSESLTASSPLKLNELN

SMILES	number of TRAP(+) MNCs / osteoclast formation [1]	LTB4-stimulated osteoclast formation [2, 4]	IC50 [3] [µM]	number of TRAP(+) MNCs ([1]; 10˜1000 nM, 48 hours, tissue culture dish, single treatment (FIG. 1, 2))	LTB4-stimulated osteoclast formation ([2]; pre-treatment 18 hrs, then 1000 nM compound + 100 nM LTB4 for 48 hrs, dentin slices)	LTB4-stimulated osteoclast formation ([2]; simultaneous treatment: 1000 nM compound + 100 nM LTB4, 48 hrs, dentin slices)	Ki [3] [µM]
COc1ccc(/C=C/CCCCOc2ccc(C(=O)c3cccc(C(=O)O)c3)cc2CCC(=O)O)cc1 [LY223982]	did not change the number of osteoclasts	significantly abolished LTB4-stimulated osteoclast formation	0.013				
CCc1cc(-c2ccc(F)cc2)c(O)cc1OCCCOc1ccc2c(=O)c3cc(C(=O)O)ccc3oc2c1CCC(=O)O [LY292728]	no significant effect on osteoclast formation compared to the control culture			no significant effect on the number of osteoclasts	appeared to suppress the formation of osteoclasts	significantly abolished osteoclast formation increased by LTB4	0.0005
CCCc1c(OCCCOc2cc(O)c(-c3ccc(F)cc3)cc2CC)cccc1Oc1ccccc1C(=O)O [LY293111]	did not change the number of osteoclasts	significantly abolished LTB4-stimulated osteoclast formation					0.025
O=C(O)/C=C/c1nc(CSc2c(Cl)cccc2Cl)ccc1OCCc1ccccc1 [SB209247]	did not change the number of osteoclasts	significantly abolished LTB4-stimulated osteoclast formation					
